For six compounds, IC50 results are on record in US9233108B2 (ALMIRALL, S.A., priority 2011, dated 2016).

For assay [1], the target named is human muscarinic M3 receptors (Homo sapiens (Human), UniProt P20309). Kind of assay: Human muscarinic M3 receptor binding assay. Particulars: CHO-K1 cell membranes, [3H]-NMS radioligand. The protocol: Test 2: Human Muscarinic M1, M2, M3, M4 and M5 receptors binding assays
The study of binding to human muscarinic M1, M2, M3, M4 and M5 receptors was performed using commercial membranes (Perkin Elmer) prepared from CHO-K1 cells. Radioligand binding experiments were conducted in 96 polypropylene well plates in a total volume of 200 μl. All reagents were dissolved in assay binding buffer (PBS with calcium and magnesium, SIGMA), except compounds that were dissolved in DMSO 100%. Non-specific binding (NSB) was measured in the presence of 1 μM atropine. [3H]-NMS was used as the radioligand at a concentration of 1 nM for M2, M3 and M5 and 0.3 nM for M1 and M4. [3H]-NMS and antagonists were incubated with membranes that express human muscarinic receptors M1, M2, M3, M4 and M5 at concentrations of 8.1, 10, 4.9, 4.5 and 4.9 μg/well, respectively.
After an incubation period of two hours with gentle shaking, 150 μl of the reaction mix were transferred to 96 GF/C filter plates (Millipore), previously treated with wash buffer (Tris 50 mM; NaCl 100 mM; pH: 7.4), containing 0.05% PEI (Sigma) during one hour. Bound and free [3H]-NMS were separated by rapid vacuum filtration in a manifold from Millipore and washed four times with ice cold wash buffer. After drying 30 min, 30 μl of OPTIPHASE Supermix were added to each well and radioactivity quantified using a Microbeta microplate scintillation counter.
The affinity of each test compound to the receptors was determined by using ten different concentrations ran in duplicate. IC50s were calculated using Activity Base software from IDBS and the four parameters-log equation.

The target in assay [2] is human adrenergic beta2 receptors (Homo sapiens (Human), UniProt P07550). The experiment in a line: Human adrenergic β2 receptor binding assay. Particulars: Sf9 cell membranes, 3H-CGP12177 radioligand. As for the experimental part: Test 1: Human Adrenergic β1 and β2 Receptor Binding Assays
The study of binding to human adrenergic beta1 and beta2 receptors was performed using commercial membranes prepared from Sf9 cells where they are overexpressed (Perkin Elmer). The membrane suspensions (16 μg/well for beta1 and 5 μg/well for beta2) in assay buffer (75 mM Tris/HCl with 12.5 mM MgCl2 and 2 mM EDTA pH=7.4) were incubated with 0.14 or 0.6 nM of 3H-CGP12177 (Amersham) for beta 1 and beta 2 receptors respectively in a final volume of 250 μl, in GFC Multiscreen 96 well plates (Millipore) previously treated with assay buffer containing 0.3% PEI (Sigma). Non specific binding was measured in the presence of 1 μM propanolol. Incubation was maintained for 60 minutes at room temperature and with gentle shaking. The binding reactions were terminated by filtration and washing with 2.5 volumes of Tris/HCl 50 mM pH=7.4. The affinity of each test compound to the receptor was determined by using ten different concentrations ran in duplicate. IC50s were calculated using Activity Base software from IDBS and the four parameters-log equation.

human muscarinic M3 receptors, sequence (P20309 whole entry): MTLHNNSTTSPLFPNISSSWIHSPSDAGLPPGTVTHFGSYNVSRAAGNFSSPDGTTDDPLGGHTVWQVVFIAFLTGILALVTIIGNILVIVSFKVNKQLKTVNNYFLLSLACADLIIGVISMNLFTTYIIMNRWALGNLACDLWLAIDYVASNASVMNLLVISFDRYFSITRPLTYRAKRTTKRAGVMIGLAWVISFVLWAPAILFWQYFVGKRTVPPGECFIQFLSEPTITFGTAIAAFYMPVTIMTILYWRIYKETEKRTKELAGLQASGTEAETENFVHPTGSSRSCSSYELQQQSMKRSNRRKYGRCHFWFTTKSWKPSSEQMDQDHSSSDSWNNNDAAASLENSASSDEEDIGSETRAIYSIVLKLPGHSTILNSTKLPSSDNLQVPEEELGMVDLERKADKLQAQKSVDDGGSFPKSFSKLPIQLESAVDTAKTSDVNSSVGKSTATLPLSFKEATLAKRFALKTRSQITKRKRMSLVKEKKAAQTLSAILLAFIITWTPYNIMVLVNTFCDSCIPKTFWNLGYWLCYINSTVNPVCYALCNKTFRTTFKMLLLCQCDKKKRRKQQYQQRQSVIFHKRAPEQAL

Take `COc1cc(-c2noc(CCCN(C)[C@H]3CC[C@H](OC(=O)C(O)(c4cccs4)c4cccs4)CC3)n2)c(Cl)cc1CNC[C@H](O)c1ccc(O)c2[nH]c(=O)ccc12` (relative stereo) [Example 9, trans-4-[(3-{3-[2-chloro-4-({[(2R)-2-hydroxy-2-(8-hydroxy-2-oxo-1,2-dihydroquinolin-5-yl)ethyl]amino}methyl)-5-methoxyphenyl]-1,2,4-oxadiazol-5-yl}propyl)(methyl)amino]cyclohexylhydroxy(di-2-thienyl)acetate dihydrofluoride]: the IC50 came to 0.2 nM in assay [1] and 2.2 nM in assay [2].

With `CN(CCCn1c(=O)oc2cc(CCNC[C@H](O)c3ccc(O)c4[nH]c(=O)ccc34)ccc21)[C@H]1CC[C@H](OC(=O)C(O)(c2cccs2)c2cccs2)CC1` (relative stereo) [Example 19, trans-4-[{3-[6-(2-{[(2R)-2-hydroxy-2-(8-hydroxy-2-oxo-1,2-dihydroquinolin-5-yl)ethyl]amino}ethyl)-2-oxo-1,3-benzoxazol-3(2H)-yl]propyl}(methyl)amino]cyclohexylhydroxy(di-2-thienyl)acetate dihydrofluoride], the concentration for half-maximal inhibition (IC50) in assay [1] was found to be 0.8 nM; in assay [2], 62 nM.

`CC(Cc1ccc(OCC(=O)NCCN[C@H]2CC[C@H](OC(=O)C(O)(c3cccs3)c3cccs3)CC2)cc1)NC[C@H](O)c1ccc(O)c2[nH]c(=O)ccc12` (relative stereo) [Example 20]: the IC50 in assay [1] was determined as 3.6 nM; in assay [2], 3.1 nM.

“trans-4-[(3-{3-[4-({[(2R)-2-hydroxy-2-(8-hydroxy-2-oxo-1,2-dihydroquinolin-5-yl)ethyl]amino}methyl)phenyl]-1,2,4-oxadiazol-5-yl}propyl)(methyl)amino]cyclohexylhydroxy(di-2-thienyl)acetate dihydrofluoride [Example 5]”: the IC50 in assay [1] was determined as 0.4 nM; in assay [2], 2.7 nM.

Turning to “trans-4-[{3-[5-({[(2R)-2-hydroxy-2-(8-hydroxy-2-oxo-1,2-dihydroquinolin-5-yl)ethyl]amino}methyl)-2-oxo-2,3-dihydro-1H-benzimidazol-1-yl]propyl}(methyl)amino]cyclohexylhydroxy(di-2-thienyl)acetate dihydrofluoride [Example 2]”, the IC50 in assay [1] is 0.4 nM; in assay [2], 120 nM.

As for “trans-4-[{3-[6-({[(2R)-2-hydroxy-2-(8-hydroxy-2-oxo-1,2-dihydroquinolin-5-yl)ethyl]amino}methyl)-2-oxo-1,3-benzothiazol-3(2H)-yl]propyl}(methyl)amino]cyclohexylhydroxy(di-2-thienyl)acetate dihydrofluoride [Example 11]”, the IC50 in assay [1] amounted to 0.5 nM; in assay [2], 4.2 nM.
